Test [1] deals with IL-2/JAK1 & 3/STAT5 (hPBC). Description: Intracellular activity assay, IL-2 induced STAT5 phosphorylation in hPBC. It is filed as cell-based. The note with it: Homo sapiens; inhibition of STAT5 phosphorylation, activated hPBC, IL-2 10 ng/mL. The text has this: In this experiment, western blot (WB) and flow cytometry are used to evaluate the intracellular activities of the test compounds by comparing the relative levels of the signals of phosphorylated and non-phosphorylated STATs in 5 cell models, including U937, THP-1, CTLL-2, UT-7/EPO and activated human periphery blood cell (hPBC). The primary antibody and secondary antibody used in WB hybridization in this experiment are purchased from Cell Signaling Company (http://www.cellsignal.com). The fluorescence-labeled antibodies used in flow cytometry are purchased from eBiosciences Company (http://www.ebioscience.com).
Cytokine IL-2 dependent proliferation is formed after activation by co-stimulation of human periphery blood cell (hPBC) with CD3 antibody. The growth signal pathway is mediated by the heterodimer of JAK1/3 and induces the phosphorylation of downstream STAT5. The intracellular inhibitory activity of the compounds on JAK1/3 can be evaluated by detecting the change of the phosphorylation level of STAT5.
(1) Treatment by the compound: the experiment is carried out in a 6-well plate. […]
(2) Cell fixation and fluorescence labeling: the cells are fixed using paraformaldehyde (30 min), and subsequently treated for membrane permeability in chilled methanol (15 min). […]
(3) Detection by flow cytometry: the detection is carried out using Guava® easyCyte flow cytometer according to the instruction. The median fluorescent intensity (MFI) of a sample is detected using an appropriate cell population. On such a basis, the relative signal intensities are calculated for the phosphorylated STATs treated by the compounds at different concentrations by reference to the signal of the negative (with no factor stimulation) and the positive control (with both factor stimulation and solvent control) in the experiment, so that the IC50 of the compound for the inhibitory activity on STATs phosphorylation can be evaluated.

For the next test, the system named is CTLL-2 cells. Kind of test: Cell growth activity assay (MTS), CTLL-2 cell model. The note with it: Mus musculus; for activity at 0.3 µM: CTLL-2, 300 nM, 24 h, read-out: CTLL-2 % growth rate @300 nM; for GI50: CTLL-2, 24 h. It is filed as cell-based, mouse. The gist of the method: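 Mouse IL-2-dependent T-cell line seeded ~20,000 cells/well, compounds added after 24 h at gradient concentrations (top 10 μM; CTLL-2 evaluation at 300 nM), cultured another 24 h. MTS/PMS added, 2 h at 37° C, absorbance 490 nm; inhibition vs DMSO control after negative-control background subtraction, GI50 calculated; triplicate.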

Another test has as its system HUVEC cells. Description: Cell growth activity assay (MTS), HUVEC cell model. It is filed as cell-based. The following applies: Homo sapiens, 72 h; for activity at 10 µM: read-out: HUVEC % growth rate @10 μM. The source says:
MTS assay is a routine method for cell toxicity detection. The basic principle is based on the capacity of dehydrogenase in the mitochondria of living cells to reduce a novel yellow […] MTS to formazan, so that the amount of living cells is proportional to the amount of formazan product by detecting the absorbance at 490 nm (OD), thereby speculating the amount of living cells according to the OD value, and understanding the capacity of the test compound to inhibit the growth of cells or to kill the cells.
HeLa cell is a human cervical cancer cell line, and belongs to epithelial tumor cell line; HUVEC is a human umbilical vein endothelial cell, and belongs to primary endothelial cell; both types of cells express all subtypes except for JAK3.
The change of JAK kinase activity has no significant influence on other cell types except for the immune cells, and both cell models mentioned above are mainly used to evaluate whether there are any other kinase targets besides JAK kinases or there are nonselective cell toxicities.
In this experiment, a cultured cell model is incubated with the test compounds at different concentrations for a specific duration. The effect of the treatment by the test compound on the growth of cells is detected using MTS assay.
MTS is performed according to routine procedure in a 96-well plate.
The model cells are inoculated into each well of the 96-well plate at an appropriate concentration (about 5000 cells/well). After 24 h, the test compounds are added at different concentration gradients (the highest final concentration is 40 μM). A solvent control (DMSO) and a negative control are also performed at the same time. Each experiment is repeated for 3 times. The cells are detected after cultured for another 72 h.
After all culture medium is aspirated out of the well, 100 μL fresh medium and 20 μL pre-formulated mixture of MTS and PMS (in a ratio of 20:1) are added to each well. After incubation at 37° C. for 2 h, it is then detected by a microplate reader (490 nm).
The cell growth inhibitory rate and GI50 of the test compound are calculated as above.
Based on the above method, cytological evaluation is performed to the compounds described herein (for the detection of CTLL-2 cell, the concentration of the test compound is 300 nM; […]).

The structures appear in SMILES notation.

On to `C=CC(=O)N(C)c1cc(Nc2ncc(Cl)c(NCCCNC(=O)c3ccc(C#N)cc3)n2)ccc1F` [Example 7, N-(3-(5-chloro-2-(4-fluoro-3-(N-methylacrylamido)phenylamino)pyrimidinyl-4-amino)propyl)-4-cyano-benzamide], for which the half-inhibitory concentration (IC50) in test [1] came out at 160 nM. In the test on CTLL-2 cells, the activity at 0.3 µM was 10% and the concentration for 50% growth inhibition (GI50) came out at 116 nM. Besides, in the test with HUVEC cells, the activity at 10 µM was found to be 94% and the GI50 is over 40000 nM.

Turning to `C=CC(=O)N(C)c1cc(Nc2ncc(Cl)c(NCCCNC(=O)c3ccc(C(F)(F)F)cc3)n2)ccc1F` [Example 22, N-(3-(5-chloro-2-(4-fluoro-3-(N-methylacrylamido)phenylamino)pyrimidinyl-4-amino)propyl)-4-trifluoromethylbenzamide], inhibition in test [1] was half-maximal at 200 nM (IC50). For the same compound, in the test on CTLL-2 cells, the activity at 0.3 µM came to 7% and it took 249 nM to inhibit growth by half (GI50). Also, in the test on HUVEC cells, the activity at 10 µM turned out to be 116% and the GI50 is over 40000 nM.

Compound `C=CC(=O)N(C)c1cc(Nc2ncc(Cl)c(NCCCNC(=O)c3ccc(F)cc3)n2)ccc1F` [Example 23, N-(3-(5-chloro-2-(4-fluoro-3-(N-methylacrylamido)phenylamino)pyrimidinyl-4-amino)propyl)-4-fluorobenzamide] yielded a concentration for half-maximal inhibition (IC50) in test [1] of 240 nM. Besides, in the test with CTLL-2 cells, the activity at 0.3 µM was 4% and the GI50 was 140 nM. Also, in the test on HUVEC cells, the activity at 10 µM was 112% and the GI50 was over 40000 nM.

Values taken from US10011571B2, “Preparation method for aromatic heterocyclic compound used as selective JAK3 and/or JAK1 kinase inhibitor and application of aromatic heterocyclic compound” (SHENZHEN CHIPSCREEN BIOSCIENCES, LTD., priority 2014, dated 2018).
